Experimental findings from patent US11773146B2, “Disruption of the WAVE3 protein complex for suppression of invasion and metastasis” (UNIVERSITY OF GEORGIA RESEARCH FOUNDATION, INC., priority 2015, dated 2023) are described below.

For assay [1], the system named is WASF3. Briefly: IP analysis of WASF3 phosphorylation. Format: cell-based. As to conditions: for WASF3 phosphorylation levels: MDA-MB-231 cells, same effect in PC3; for suppression of WASF3 phosphorylation compared with 17-AAG: comparison with HSP90 inhibitor 17-AAG. As for the experimental part:
(§1) Immunoprecipitation assays were carried out as described previously (Sossey-Alaoui, K., et al. J. Biol. Chem. 82:26257-26265 (2007)). Specially, to determine the physical interaction with individual peptides, MDA-MB-231 cells were pretreated with 10 μM biotin-labeled peptides for 24 hours and lysates were incubated with immobilized avidin resin overnight at 4° C. The pull down samples were subjected to SDS-PAGE followed by Western blot analysis.

The next assay has as its system WASF3, NCKAP1 or RAC1. The assay is described as follows: Western blot of protein levels with RAC1 inhibitor. Format: cell-based. The following applies: MDA-MB-231 and Hs578T cells. An excerpt: (§2) MDA-MB-231, Hs578T and T47D breast cancer cell lines were obtained directly from American Type Culture Collection (Rockville, Md.). MDA-MB-231 and T47D and have been verified using SNP-CGH (Teng Y, et al. Int J Cancer 2011 129:2825-2835) for characteristic cytogenetic changes. The ATCC Cell Authentication Testing service confirmed the identity of Hs578T using STR DNA fingerprinting analysis. Standard cell culture, transient transfections, RT-PCR, western blotting, immunoprecipitation (IP), flow cytometry, Biotin-Avidin pulldown, lentiviral transduction, cell proliferation and Transwell invasion assays were carried out as described previously (Teng Y, et al. Int J Cancer 2011 129:2825-2835; Teng Y, et al. J Biol Chem 2012 287:10051-10059; Teng Y, et al. Carcinogenesis 2013 34:1994-1999).
On the technique in general: In western blotting, separated proteins are transferred to a membrane and probed.

For assay [2], the system named is MDA-MB-231 cells overexpressing NCKAP1. The assay is described as follows: Transwell invasion assay in cells overexpressing NCKAP1. Format: cell-based. As to conditions: parental cells with empty vector and cells overexpressing NCKAP1.
Text: as §2
Lentiviral pCDH-CMV-MCS-EF1-PURO-HA-WASF3 (pCDH-HA-WASF3) was generated as described previously (Teng Y, et al. Carcinogenesis 2013 34:1994-1999). To construct the HA-NCKAP1 overexpression vector, the full-length human NCKAP1 was amplified from the template NCKAP1 cDNA clone (OriGene, Rockville, Md.) and was inserted into pCDHCMV-MCS-EF1-GFP lentiviral vector (System Biosciences, Mountain View, Calif.) as described previously (Teng Y, et al. Oncogene 2014 33:203-211). […]

The test system of assay [3] is MDA-MB-231 and Hs578T cells. The assay is described as follows: Transwell invasion assay with RAC1 inhibitor. The format is cell-based. The following applies: dose-dependent treatment.
Text: as §2

The subject of another assay is MDA-MB-231 cells. Briefly: Transwell invasion assay (WANT peptides). Format: cell-based. The following applies: for invasion potential: final concentration of 10 μM. The text has this: There are currently no small molecules that target WASF3 function directly, but targeting the WRC may provide a means of suppressing invasion.
The subject of assay [4] is WASF3. Briefly: Western blot of WASF3 protein levels after WAHM treatment. Format: cell-based. The following applies: for WASF3 levels in serum-starved cells: MDA-MB-231 and PC3 cells starved overnight, then treated for 4 hours; for intracellular levels of either WASF3 or CYFIP1: MDA-MB-231 cells; for WASF3 protein levels: MDA-MB-231 cells in serum, 2 to 24 hours. As for the experimental part:
(§3) Hs578T, MDA-MB-231, DU145 and PC3 cells were purchased from the American Type Culture Collection (ATCC) and maintained according to the supplier's instructions. Lentiviral transduction, cell proliferation assays, wound healing assays, Matrigel invasion assays, Western blotting, flow cytometry and confocal image analysis were carried out as described previously (Teng, Y., et al. Br. J. Cancer 103:1066-1075 (2010); Teng, Y., et al. Int. J. Cancer 129:2825-2835 (2011); Teng, Y., et al. Oncogene 33:203-211 (2014); Teng, Y., et al. J. Biol. Chem. 287:10051-10059 (2012); Teng, Y., et al. Carcinogenesis […] (2013); Teng, Y. et al. Oncogene Mar 30 (2015)).

The subject of the next assay is KISS1. The assay is described as follows: Western blot of KISS1 levels. Format: cell-based. As to conditions: MDA-MB-231 cells, compared with scrambled peptides. As for the experimental part: as §3
For assay [5], the system named is MDA-MB-231 and PC3 cells. Briefly: Transwell invasion analysis (WAHM peptides). Format: cell-based. The following applies: breast and prostate cells. As for the experimental part:
as §3

Assay [6] concerns MDA-MB-231 and PC3 cells. The assay is described as follows: Scratch wound assay. Format: cell-based. The following applies: breast and prostate cell lines, versus DMSO and scrambled peptide. As for the experimental part:
as §3

A further assay deals with MMP-9. The assay is described as follows: MMP-9 secretion in culture supernatant by ELISA. Format: cell-based, Human. As to conditions: MDA-MB-231 and PC3 cells, 24 hours, compared with scrambled controls. As to the method: After incubation with WAHM or scrambled peptides for 24 hours, MDA-MB-231 and PC3 cell supernatants were recovered and centrifuged at 1000 g at 4° C. for 20 min. MMP-9 levels in supernatants were measured using the Human MMP-9 Quantikine® ELISA kit (R&D Systems) and microplate reader at 450 nm.
On the technique in general: In an ELISA, binding on a coated surface is turned into a signal by an enzyme label.

The next assay deals with T1, CYFIP1 (Homo sapiens, UniProt Q7L576).
T1 construct: endogenous in cells; host or cells: MDA-MB-231
The assay is described as follows: Avidin-biotin pull down with biotinylated stapled peptides. The format is binding. The following applies: biotinylated peptide 10 μM, MDA-MB-231 cells. As for the experimental part: as §1
To determine whether the SPs formed a complex with WASF3 within the cells, MDA-MB-231 cells were exposed to biotinylated WAHM1 and WAHM2 for 6 hours, after which the cells were lysed and pull down assays were performed using avidin-coated beads.

Assay [7] concerns MDA-MB-231 and PC3 cells. Briefly: MTS cell proliferation assay. The format is cell-based. The following applies: 10 μM over 24 hours. As to the method:
as §3

Assay [8] relates to MDA-MB-231 and PC3 cells. The assay is described as follows: Phalloidin staining and quantitation of filamentous actin. The format is cell-based. As to conditions: 24 hours; for actin stress fibers (phalloidin staining): 10 μM; for fluorescence intensity of phalloidin stained cells: versus DMSO or scrambled peptides. As for the experimental part:
MDA-MB-231 and PC3 cells were seeded (10,000 cells per well) on slides with the Nunc™ Lab-Tek™ II Chamber Slide™ System (Thermo Fisher Scientific) in complete medium overnight and incubated with 10 μM WAHM or scrambled peptides for 24 hours. Cells were then fixed with 3.7% formaldehyde for 15 min and permeabilized with 0.1% Triton X-100 for 10 min and incubated with Texas-red phalloidin (Life technologies) for an additional 30 min to stain actin filaments. Cells were imaged using a Zeiss LSM 410 confocal microscope equipped with ×63 (1.4 numerical aperture) oil objective (Carl Zeiss) as previously described8. To quantitate the filamentous actin, cells were seeded at 2000 cells per well in a 96 well plate and treated with […] or scrambled peptides for 24 hours. Cells were then stained with phalloidin as described above, followed by extensive washings. Phallodin was solubilized with methanol and the supernatant was transferred to a clear-bottom black plate, and the fluorescence was determined using Infinite® M1000 PRO (Tecan). A parallel set of cells was used to determine cell number using the CellTiter-Glo® Luminescent Cell Viability kit from Promega (Madison), according to the manufacturer's parameters. Data from three independent experiments were expressed as mean relative fluorescence units per cell SEM.

In another assay the target is T2, WASF3-CYFIP1 complex (Homo sapiens, UniProt Q7L576).
T2 construct: endogenous in cells; host or cells: MDA-MB-231
Briefly: IP of WASF3: presence of CYFIP1 in the immunocomplex. The format is cell-based. As to conditions: MDA-MB-231 cells treated with the SPs. As for the experimental part: as §1

“Also recorded” adds a separate entry of the source. Bridges are numbered along the chain shown (N, C = ends). Where no end group is shown, it is not given here. [ ]: non-standard residue; d: D form. S5 = C=CCCC[C@](C)(N)C(=O)O

T2 sequence (Q7L576 whole entry): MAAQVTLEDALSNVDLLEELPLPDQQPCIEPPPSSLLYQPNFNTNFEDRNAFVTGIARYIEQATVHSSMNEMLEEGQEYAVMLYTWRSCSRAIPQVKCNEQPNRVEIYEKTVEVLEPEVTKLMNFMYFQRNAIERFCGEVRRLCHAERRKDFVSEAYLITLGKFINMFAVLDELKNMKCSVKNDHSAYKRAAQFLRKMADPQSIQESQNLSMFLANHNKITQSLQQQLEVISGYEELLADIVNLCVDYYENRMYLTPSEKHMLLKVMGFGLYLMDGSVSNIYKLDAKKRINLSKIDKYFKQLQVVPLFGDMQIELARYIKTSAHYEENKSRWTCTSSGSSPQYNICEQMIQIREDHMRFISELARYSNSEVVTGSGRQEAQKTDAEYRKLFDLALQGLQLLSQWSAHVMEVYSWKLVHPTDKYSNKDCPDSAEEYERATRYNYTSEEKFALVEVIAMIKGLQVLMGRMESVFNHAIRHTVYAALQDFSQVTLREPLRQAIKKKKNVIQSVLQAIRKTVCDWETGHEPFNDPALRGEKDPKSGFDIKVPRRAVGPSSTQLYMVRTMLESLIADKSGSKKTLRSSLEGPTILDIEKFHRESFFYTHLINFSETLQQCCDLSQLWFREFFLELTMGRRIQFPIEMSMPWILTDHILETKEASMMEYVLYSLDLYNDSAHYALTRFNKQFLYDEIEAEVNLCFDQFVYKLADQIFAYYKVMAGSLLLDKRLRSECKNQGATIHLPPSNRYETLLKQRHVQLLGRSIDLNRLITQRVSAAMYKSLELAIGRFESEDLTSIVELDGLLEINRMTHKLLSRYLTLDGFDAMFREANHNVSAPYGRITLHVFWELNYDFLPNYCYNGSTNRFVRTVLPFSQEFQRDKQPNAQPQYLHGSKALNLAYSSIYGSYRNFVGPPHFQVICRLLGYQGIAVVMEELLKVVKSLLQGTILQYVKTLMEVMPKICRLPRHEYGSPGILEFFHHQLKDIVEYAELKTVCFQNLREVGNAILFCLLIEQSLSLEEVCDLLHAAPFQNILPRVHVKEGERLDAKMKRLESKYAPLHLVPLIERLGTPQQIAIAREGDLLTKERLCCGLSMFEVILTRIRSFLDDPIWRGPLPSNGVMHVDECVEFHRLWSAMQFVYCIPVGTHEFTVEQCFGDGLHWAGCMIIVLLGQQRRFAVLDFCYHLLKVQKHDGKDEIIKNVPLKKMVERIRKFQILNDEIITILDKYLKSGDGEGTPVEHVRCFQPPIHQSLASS
T2 sequence (Q9Y2A7 2-1128 partner limits assumed): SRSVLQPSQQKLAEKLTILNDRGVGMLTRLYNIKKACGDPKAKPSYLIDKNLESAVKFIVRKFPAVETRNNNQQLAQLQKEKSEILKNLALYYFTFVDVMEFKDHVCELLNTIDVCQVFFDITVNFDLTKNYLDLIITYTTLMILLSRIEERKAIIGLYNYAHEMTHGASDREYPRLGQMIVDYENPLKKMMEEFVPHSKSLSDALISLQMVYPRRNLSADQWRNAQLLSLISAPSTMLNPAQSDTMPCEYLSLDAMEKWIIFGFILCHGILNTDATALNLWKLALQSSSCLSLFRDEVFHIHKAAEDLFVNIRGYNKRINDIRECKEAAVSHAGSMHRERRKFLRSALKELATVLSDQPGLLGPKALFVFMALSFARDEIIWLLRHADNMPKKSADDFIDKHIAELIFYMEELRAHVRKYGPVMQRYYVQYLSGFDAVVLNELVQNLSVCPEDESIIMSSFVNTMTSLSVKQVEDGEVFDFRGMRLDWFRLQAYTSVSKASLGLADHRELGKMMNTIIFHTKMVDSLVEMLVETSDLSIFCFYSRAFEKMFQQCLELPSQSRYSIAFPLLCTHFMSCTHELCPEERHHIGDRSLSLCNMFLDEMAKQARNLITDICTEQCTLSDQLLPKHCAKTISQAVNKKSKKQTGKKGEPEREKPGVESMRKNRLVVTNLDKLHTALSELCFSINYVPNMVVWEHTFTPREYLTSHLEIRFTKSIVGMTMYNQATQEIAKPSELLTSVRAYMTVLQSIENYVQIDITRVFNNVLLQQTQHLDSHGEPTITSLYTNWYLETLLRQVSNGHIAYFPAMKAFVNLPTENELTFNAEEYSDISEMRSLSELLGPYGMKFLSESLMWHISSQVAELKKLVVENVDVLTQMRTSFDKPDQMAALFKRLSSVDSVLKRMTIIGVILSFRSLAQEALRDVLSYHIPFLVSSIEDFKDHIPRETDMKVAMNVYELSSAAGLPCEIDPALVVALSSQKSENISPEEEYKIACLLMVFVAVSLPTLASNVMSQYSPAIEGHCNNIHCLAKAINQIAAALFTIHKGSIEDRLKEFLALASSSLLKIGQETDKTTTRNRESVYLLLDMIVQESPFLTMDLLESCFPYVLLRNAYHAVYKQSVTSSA
T1 sequence (Q7L576 whole entry): as the sequence (Q7L576 whole entry) above

Take `C=CCNC1=C2C[C@@H](C)C[C@H](OC)[C@H](O)[C@@H](C)/C=C(\C)[C@H](OC(N)=O)[C@@H](OC)/C=C\C=C(/C)C(=O)NC(=CC1=O)C2=O` [17-AAG, reference compound]: the WASF3 phosphorylation levels result with WASF3 [1] is “reduced WASF3 phosphoactivation”.
In the case of `CCN(CC)CCCC(C)Nc1nc(C)cc(Nc2ccc3nc(C)cc(N)c3c2)n1` (stereo not drawn) [NSC23766], the “protein levels of either WASF3, NCKAP1 or RAC1” value in the assay with WASF3, NCKAP1 or RAC1 is “without affecting; also recorded: does not affect protein levels”. In addition, the “invasion potential in cells expressing NCKAP1” value in [2] is given as “significant reduction in invasion”; in assay [2] (listed as NSC23677), “significant reduction of invasion potential”. For the same compound, the invasion result in assay [3] is reported as “dose-dependent reduction in invasion potential”.
As for “ELXSSIXDFKDHK (EL[S5]SSI[S5]DFKDHK-NH2; staple 3-7) [WANT2, WASF3-NCKAP1 Target stapled peptide; X is (S)-2-(4′-pentenyl)alanine]”, the invasion potential entry with MDA-MB-231 cells was “no significant effect on invasion potential”.
In the case of “KHCAXTISXAVNK (KHCA[S5]TIS[S5]AVNK-NH2; staple 5-9) [WANT1, WASF3-NCKAP1 Target stapled peptide; X is (S)-2-(4′-pentenyl)alanine]”, the invasion potential result with MDA-MB-231 cells was “no significant effect on invasion potential”.
Consider “LEK*TNS*LAKIIRQL (LEK[S5]TNS[S5]LAKIIRQL-NH2; staple 4-8; not fully specified (N-terminus)) [WAHM1, WASF Helix Mimic stapled peptide; * is (S)-2-(4′-pentenyl)alanine that forms the staple]”, for which, in the assay with WASF3 [4], the “WASF3 levels in serum-starved cells” value was “reduced below detectable levels”, the “intracellular levels of either WASF3 or CYFIP1” value is reported as “did not affect” and the WASF3 protein levels result is “WASF3 protein levels were not affected; also recorded: without a reduction in WASF3 protein levels; also recorded: no reduction in WASF3 protein levels”. Further, in the assay with KISS1, the KISS1 protein levels result is reported as “increased KISS1 levels; also recorded: KISS1 levels increase”. Moreover, the “effect on invasion (in words)” value in the assay with MDA-MB-231 and PC3 cells [5] was “significantly suppresses invasion”. Besides, the “migration potential / cell motility” value in the assay with MDA-MB-231 and PC3 cells [6] is listed as “reduced migration potential; also recorded: significant reduction in cell motility”. Also, the “secreted MMP9 levels” value in the assay with MMP-9 is listed as “remarkable reduction in secreted MMP9 levels; also recorded: significantly reduced MMP9 levels”. The “CYFIP1 in the pull down complex” value in the assay with CYFIP1 is “CYFIP1 was present in the pull down complex; also recorded: CYFIP1 was shown to interact”. For the same compound, in the assay with MDA-MB-231 and PC3 cells [7], the “cell proliferation (MTS)” value is “no significant difference in cell proliferation”. In addition, in the assay with MDA-MB-231 and PC3 cells [8], the “actin stress fibers (phalloidin staining)” value is “increase in both the number and thickness of the actin stress fibers”; the “fluorescence intensity of phalloidin stained cells” value was “increased intensity”. Further, in the assay with MDA-MB-231 cells, the “suppression of invasion, WAHM1 compared with WANT3” value was “comparable suppression of invasion”. Besides, the “CYFIP1 in WASF3 immunocomplex” value in the assay with WASF3-CYFIP1 complex was “CYFIP1 was not present in the immunocomplex”. Also, in the assay on WASF3 [1], the WASF3 phosphorylation levels result is given as “dramatic decrease in WASF3 phosphorylation levels; also recorded: reduction in WASF3 phosphorylation” and the “suppression of WASF3 phosphorylation compared with 17-AAG” value is listed as “more efficient”.
As to “LEKKTN*TLA*IIRQL (LEKKTN[S5]TLA[S5]IIRQL-NH2; staple 7-11; not fully specified (N-terminus)) [WAHM2, WASF Helix Mimic stapled peptide; * is (S)-2-(4′-pentenyl)alanine that forms the staple]”, in the assay on WASF3 [4], the “WASF3 levels in serum-starved cells” value is recorded as “reduced below detectable levels”, the “intracellular levels of either WASF3 or CYFIP1” value is “did not affect” and the WASF3 protein levels result is listed as “WASF3 protein levels were not affected; also recorded: without a reduction in WASF3 protein levels; also recorded: no reduction in WASF3 protein levels”. Also, in the assay on KISS1, the KISS1 protein levels entry is listed as “increased KISS1 levels; also recorded: KISS1 levels increase”. In addition, in the assay on MDA-MB-231 and PC3 cells [5], the “effect on invasion (in words)” value is recorded as “significantly suppresses invasion”. Also, the “migration potential / cell motility” value in the assay on MDA-MB-231 and PC3 cells [6] is “reduced migration potential; also recorded: significant reduction in cell motility”. Further, the “secreted MMP9 levels” value with MMP-9 is listed as “remarkable reduction in secreted MMP9 levels; also recorded: significantly reduced MMP9 levels”. Moreover, the “CYFIP1 in the pull down complex” value in the assay with CYFIP1 is recorded as “CYFIP1 was present in the pull down complex; also recorded: CYFIP1 was shown to interact”. Besides, the “cell proliferation (MTS)” value with MDA-MB-231 and PC3 cells [7] is given as “no significant difference in cell proliferation”. Also, in the assay with MDA-MB-231 and PC3 cells [8], the “actin stress fibers (phalloidin staining)” value is “increase in both the number and thickness of the actin stress fibers”; the “fluorescence intensity of phalloidin stained cells” value is “increased intensity”. The “CYFIP1 in WASF3 immunocomplex” value in the assay with WASF3-CYFIP1 complex is “CYFIP1 was not present in the immunocomplex”. Moreover, in the assay on WASF3 [1], the WASF3 phosphorylation levels result is reported as “dramatic decrease in WASF3 phosphorylation levels; also recorded: reduction in WASF3 phosphorylation” and the “suppression of WASF3 phosphorylation compared with 17-AAG” value was “more efficient”.
